Source: ChEMBL document CHEMBL1135903 (J Med Chem, 2002)
pKi: −log10 of the molar value. Where “and” joins values, the source holds several entries; their conditions need not be identical. Equal values may be shown once.

Tests used:
Carbonic anhydrase 4 = target: T1, Carbonic anhydrase 4 (Bos taurus, UniProt Q95323)
T1 sequence (Q95323 whole entry): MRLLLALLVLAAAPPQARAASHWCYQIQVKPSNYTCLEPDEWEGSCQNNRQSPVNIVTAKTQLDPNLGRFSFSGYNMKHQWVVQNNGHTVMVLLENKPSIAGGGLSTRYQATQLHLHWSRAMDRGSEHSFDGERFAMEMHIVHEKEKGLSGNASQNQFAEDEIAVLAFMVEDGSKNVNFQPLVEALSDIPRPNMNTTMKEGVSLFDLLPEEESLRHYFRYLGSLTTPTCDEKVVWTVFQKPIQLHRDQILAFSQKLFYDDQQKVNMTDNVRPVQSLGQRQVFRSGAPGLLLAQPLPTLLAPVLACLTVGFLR
Description: Inhibitory activity against bovine carbonic anhydrase IV

Carbonic anhydrase 1 = Carbonic anhydrase 1 (Homo sapiens, UniProt P00915)
Sequence of Carbonic anhydrase 1 (P00915 whole entry): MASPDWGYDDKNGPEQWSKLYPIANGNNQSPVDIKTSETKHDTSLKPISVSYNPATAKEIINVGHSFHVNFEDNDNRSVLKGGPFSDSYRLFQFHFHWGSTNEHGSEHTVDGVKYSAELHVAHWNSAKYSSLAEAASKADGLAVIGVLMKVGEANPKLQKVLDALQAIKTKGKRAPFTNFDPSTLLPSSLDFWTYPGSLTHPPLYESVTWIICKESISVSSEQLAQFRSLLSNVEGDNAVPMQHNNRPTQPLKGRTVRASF
Description: Inhibitory activity against Human carbonic anhydrase I

SMILES | pKi (Carbonic anhydrase 4) | pKi (Carbonic anhydrase 1)
NS(=O)(=O)c1nc2ccc(OC(=O)CN(CCN(CC(=O)O)CC(=O)O)CC(=O)O)cc2s1 | 8.00 | 7.37
NS(=O)(=O)c1ccc(NC(=O)CN(CCOCCOCCN(CC(=O)O)CC(=O)Nc2ccc(S(N)(=O)=O)cc2)CC(=O)O)cc1 [listing 1 of 2 here] | 7.12 | 6.52
NS(=O)(=O)c1ccc(NNC(=O)CN(CCN(CC(=O)O)c2ccccc2O)c2ccccc2O)cc1 | 6.08 | 4.68
NS(=O)(=O)c1cc(S(N)(=O)=O)c(NC(=O)CN(CCOCCOCCN(CC(=O)O)CC(=O)O)CC(=O)O)cc1Cl | 7.19 | 7.03
NS(=O)(=O)c1nc2ccc(OC(=O)CN(CCN(CC(=O)O)c3ccccc3O)c3ccccc3O)cc2s1 | 7.92 | 7.33
NS(=O)(=O)c1ccccc1NC(=O)CN(CC(=O)O)CC(=O)O | 5.92 | 4.59
NS(=O)(=O)c1ccc(CCNC(=O)CN(CC(=O)O)CC(=O)O)cc1 | 6.62 | 5.48
NS(=O)(=O)c1nc2ccc(NC(=O)CN(CCOCCOCCN(CC(=O)O)CC(=O)Nc3ccc4nc(S(N)(=O)=O)sc4c3)CC(=O)O)cc2s1 | 8.40 | 7.64
Cn1nc(S(N)(=O)=O)s/c1=N/C(=O)CN(CC(=O)O)CC(=O)O | 6.97 | 6.28
NS(=O)(=O)c1nnc(NC(=O)CCNC(=O)CN(CCN(CC(=O)O)CC(=O)O)CC(=O)O)s1 | 7.64 | 6.70
NS(=O)(=O)c1nnc(NC(=O)CN(CCN(CC(=O)O)c2ccccc2O)c2ccccc2O)s1 | 6.98 | 6.61
NS(=O)(=O)c1nc2ccc(OC(=O)CN(CCN(CC(=O)O)CC(=O)Oc3ccc4nc(S(N)(=O)=O)sc4c3)CC(=O)O)cc2s1 | 8.10 | 7.43
NS(=O)(=O)c1ccc(NC(=O)CN(CCN(CC(=O)O)c2ccccc2O)c2ccccc2O)c(Cl)c1 | 6.97 | 6.06
NS(=O)(=O)c1cc(S(N)(=O)=O)c(NC(=O)CNCCNCC(=O)O)c(Cl)c1Cl | 6.96 | 6.54
NS(=O)(=O)c1ccccc1NC(=O)CN(CCOCCOCCN(CC(=O)O)CC(=O)Nc1ccccc1S(N)(=O)=O)CC(=O)O | 6.49 | 5.25
NS(=O)(=O)c1nnc(NC(=O)CCNC(=O)CN(CC(=O)O)CC(=O)O)s1 | 7.35 | 6.57
NS(=O)(=O)c1nc2ccc(OCCOC(=O)CN(CCN(CC(=O)O)CC(=O)O)CC(=O)O)cc2s1 | 8.10 | 7.41
NS(=O)(=O)c1ccc(NNC(=O)CN(CCOCCOCCN(CC(=O)O)CC(=O)NNc2ccc(S(N)(=O)=O)cc2)CC(=O)O)cc1 | 6.40 | 5.02
NS(=O)(=O)c1nc2ccc(NC(=O)CNCCNCC(=O)O)cc2s1 | 7.92 | 7.25
NS(=O)(=O)c1ccc(NC(=O)CN(CCOCCOCCN(CC(=O)O)CC(=O)Nc2ccc(S(N)(=O)=O)cc2)CC(=O)O)cc1 [listing 2 of 2 here] | 6.82 | 5.42
NS(=O)(=O)c1cc(S(N)(=O)=O)c(NC(=O)CNCCNCC(=O)O)cc1Cl | 6.87 | 6.60
NS(=O)(=O)c1ccc(NC(=O)CNCCNCC(=O)O)c(F)c1 | 6.99 | 6.11
NS(=O)(=O)c1ccc(CNC(=O)CN(CCOCCOCCN(CC(=O)O)CC(=O)NCc2ccc(S(N)(=O)=O)cc2)CC(=O)O)cc1 [listing 1 of 2 here] | 7.80 | 7.46

SMILES | pKi (Carbonic anhydrase 4) | pKi (Carbonic anhydrase 1)
NS(=O)(=O)c1ccc(CCOC(=O)CNCCNCC(=O)O)cc1 | 6.48 | 6.00
NS(=O)(=O)c1ccc(NC(=O)CNCC(=O)O)c(Br)c1 | 7.24 | 6.21
NS(=O)(=O)c1ccc(CNC(=O)CN(CCOCCOCCN(CC(=O)O)CC(=O)NCc2ccc(S(N)(=O)=O)cc2)CC(=O)O)cc1 [listing 2 of 2 here] | 7.41 | 6.46
NS(=O)(=O)c1ccc(CCNC(=O)CN(CCOCCOCCN(CC(=O)O)CC(=O)NCCc2ccc(S(N)(=O)=O)cc2)CC(=O)O)cc1 | 7.92 | 7.52
NS(=O)(=O)c1nc2ccc(OC(=O)CN(CCOCCOCCN(CC(=O)O)CC(=O)O)CC(=O)O)cc2s1 | 8.30 | 7.48
NS(=O)(=O)c1ccc(NC(=O)CNCCNCC(=O)O)cc1 | 6.44 | 4.92
NS(=O)(=O)c1ccc(NC(=O)CNCCNCC(=O)O)c(I)c1 | 6.94 | 6.37
NS(=O)(=O)c1ccc(NC(=O)CN(CCN(CC(=O)O)CC(=O)O)CC(=O)O)c(Br)c1 | 7.30 | 6.89
NS(=O)(=O)c1ccc(COC(=O)CN(CCOCCOCCN(CC(=O)O)CC(=O)O)CC(=O)O)cc1 | 6.60 | 6.30
NS(=O)(=O)c1cccc(NC(=O)CNCC(=O)O)c1 | 5.82 | 4.64
NS(=O)(=O)c1ccc(NNC(=O)CN(CCOCCOCCN(CC(=O)O)CC(=O)O)CC(=O)O)cc1 | 6.21 | 4.90
NS(=O)(=O)c1nnc(NC(=O)CNCCNCC(=O)O)s1 | 6.89 | 6.60
NS(=O)(=O)c1nc2ccc(OC(=O)CN(CCOCCOCCN(CC(=O)O)CC(=O)Oc3ccc4nc(S(N)(=O)=O)sc4c3)CC(=O)O)cc2s1 | 8.30 | 7.68
NS(=O)(=O)c1nnc(NC(=O)CN(CCOCCOCCN(CC(=O)O)CC(=O)Nc2nnc(S(N)(=O)=O)s2)CC(=O)O)s1 [listing 1 of 2 here] | 8.40 | 7.26
NS(=O)(=O)c1ccc(NC(=O)CN(CCN(CC(=O)O)CC(=O)Nc2ccc(S(N)(=O)=O)cc2F)CC(=O)O)c(F)c1 | 7.46 | 6.62
NS(=O)(=O)c1nnc(NC(=O)CN(CCN(CC(=O)O)CC(=O)O)CC(=O)O)s1 | 7.43 | 6.65
NS(=O)(=O)c1nc2ccc(OC(=O)CNCC(=O)O)cc2s1 | 7.85 | 7.30
NS(=O)(=O)c1ccc(NNC(=O)CN(CCN(CC(=O)O)CC(=O)O)CC(=O)O)cc1 | 6.12 | 4.80
NS(=O)(=O)c1cc(S(N)(=O)=O)c(NC(=O)CN(CCN(CC(=O)O)c2ccccc2O)c2ccccc2O)cc1Cl | 6.91 | 6.62
NS(=O)(=O)c1ccc(NC(=O)CN(CCN(CC(=O)O)CC(=O)Nc2ccc(S(N)(=O)=O)cc2Br)CC(=O)O)c(Br)c1 | 7.47 | 6.98
NS(=O)(=O)c1ccc(CNC(=O)CNCCNCC(=O)O)cc1 | 6.61 | 5.75
NS(=O)(=O)c1nc2ccc(NC(=O)CNCC(=O)O)cc2s1 | 7.85 | 7.19
NS(=O)(=O)c1nc2ccc(OCCOC(=O)CNCCNCC(=O)O)cc2s1 | 8.05 | 7.37

SMILES | pKi (Carbonic anhydrase 4) | pKi (Carbonic anhydrase 1)
NS(=O)(=O)c1ccc(NC(=O)CN(CCN(CC(=O)O)CC(=O)O)CC(=O)O)c(Cl)c1 | 7.16 | 6.15
NS(=O)(=O)c1ccc(COC(=O)CN(CCN(CC(=O)O)c2ccccc2O)c2ccccc2O)cc1 | 6.49 | 6.02
NS(=O)(=O)c1ccc(COC(=O)CNCC(=O)O)cc1 | 6.46 | 5.90
NS(=O)(=O)c1ccc(CCNC(=O)CNCCNCC(=O)O)cc1 | 6.60 | 5.81
NS(=O)(=O)c1cc(S(N)(=O)=O)c(NC(=O)CN(CCOCCOCCN(CC(=O)O)CC(=O)Nc2cc(Cl)c(S(N)(=O)=O)cc2S(N)(=O)=O)CC(=O)O)cc1Cl | 7.44 | 7.30
NS(=O)(=O)c1ccc(CNC(=O)CNCC(=O)O)cc1 | 6.55 | 5.44
NS(=O)(=O)c1ccc(NC(=O)CN(CCOCCOCCN(CC(=O)O)CC(=O)O)CC(=O)O)c(I)c1 | 7.62 | 7.12
NS(=O)(=O)c1ccc(CCOC(=O)CN(CCOCCOCCN(CC(=O)O)CC(=O)O)CC(=O)O)cc1 | 6.81 | 6.37
NS(=O)(=O)c1cc(S(N)(=O)=O)c(NC(=O)CN(CCOCCOCCN(CC(=O)O)CC(=O)Nc2c(S(N)(=O)=O)cc(S(N)(=O)=O)c(Cl)c2Cl)CC(=O)O)c(Cl)c1Cl | 7.68 | 7.31
NS(=O)(=O)c1ccc(NC(=O)CN(CC(=O)O)CC(=O)O)c(I)c1 | 6.96 | 6.29
NS(=O)(=O)c1ccc(NC(=O)CN(CCOCCOCCN(CC(=O)O)CC(=O)O)CC(=O)O)c(Cl)c1 | 7.52 | 6.64
NS(=O)(=O)c1nc2ccc(OC(=O)CN(CCN(CCN(CC(=O)O)CC(=O)Oc3ccc4nc(S(N)(=O)=O)sc4c3)CC(=O)O)CC(=O)O)cc2s1 | 8.40 and 8.30 | 7.80
NS(=O)(=O)c1nc2ccc(OC(=O)CN(CC(=O)O)CC(=O)O)cc2s1 | 7.89 | 7.32
NS(=O)(=O)c1nnc(NC(=O)CCNC(=O)CN(CCOCCOCCN(CC(=O)O)CC(=O)NCCC(=O)Nc2nnc(S(N)(=O)=O)s2)CC(=O)O)s1 | 8.22 | 7.12
NS(=O)(=O)c1ccc(CCOC(=O)CN(CC(=O)O)CC(=O)O)cc1 | 6.49 | 5.96
NS(=O)(=O)c1cc(S(N)(=O)=O)c(NC(=O)CN(CC(=O)O)CC(=O)O)c(Cl)c1Cl | 7.00 | 6.46
NS(=O)(=O)c1ccc(COC(=O)CN(CCOCCOCCN(CC(=O)O)CC(=O)OCc2ccc(S(N)(=O)=O)cc2)CC(=O)O)cc1 | 6.82 | 6.47
NS(=O)(=O)c1ccc(NC(=O)CN(CCN(CC(=O)O)c2ccccc2O)c2ccccc2O)cc1 | 6.49 | 4.94
NS(=O)(=O)c1nc2ccc(NC(=O)CN(CCN(CC(=O)O)CC(=O)Nc3ccc4nc(S(N)(=O)=O)sc4c3)CC(=O)O)cc2s1 | 8.05 | 7.48
NS(=O)(=O)c1ccc(NNC(=O)CNCC(=O)O)cc1 | 6.01 | 4.49
NS(=O)(=O)c1nnc(NC(=O)CN(CCOCCOCCN(CC(=O)O)CC(=O)Nc2nnc(S(N)(=O)=O)s2)CC(=O)O)s1 [listing 2 of 2 here] | 8.10 | 7.57
Cn1nc(S(N)(=O)=O)s/c1=N/C(=O)CN(CCN(CCN(CC(=O)O)CC(=O)/N=c1/sc(S(N)(=O)=O)nn1C)CC(=O)O)CC(=O)O | 8.05 | 7.27
